# Experimental data from US6525001B1, “Substituted pyrimidine and pyridine herbicides” (Mid-American Commercialization Corporation, priority 1997, dated 2003).
# What was measured:
# Type in all cases: in vivo
# [1] = tested on: barnyardgrass (Echinochloa crus-galli); test: Test E pre-/postemergence/post directed; conditions: PREEMERGENCE
# Summary of the method: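 Three application modes in greenhouse pots: preemergence soil spray, postemergence foliar spray at two to four leaves, and post-directed spray to soil and plant base. Ratings of 0–100 injury, assigned visually against untreated controls 13 to 21 days later.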
# [2] = tested on: blackgrass (Alopecurus myosuroides); test: Test D; conditions: PREEMERGENCE
# kochia (Kochia scoparia) = test: Test D; conditions: POSTEMERGENCE
# Description: (§1) Compounds evaluated in this test were formulated in a non-phytotoxic solvent mixture which included a surfactant and applied to plants that were in the 1- to 4-leaf stage (postemergence application). A mixture of sandy loam soil and greenhouse potting mix in a 60:40 ratio was used for the postemergence test.
# (§2) Plantings of these crops and weed species were adjusted to produce plants of appropriate size for the postemergence test. All plant species were grown using normal greenhouse practices. Crop and weed species include alfalfa (Medicago sativa), annual bluegrass (Poa annua), blackgrass (Alopecurus myosuroides), black nightshade (Solanum nigra), chickweed (Stellaria media), common poppy (Papaver rhoeas), deadnettle (Lamium amplexicaule), downy brome (Bromus tectorum), field violet (Viola arvensis), galium 2 (Galium aparine), green foxtail (Setaria viridis), Italian ryegrass (Lolium multiflorum), jointed goatgrass (Aegilops cylindrica), kochia (Kochia scoparia), lambsquarters (Chenopodium album), lentil (Lens culinaris), littleseed canarygrass (Phalaris minor), pea (Pisum sativum), potato (Solanum tuberosum), rape (Brassica napus), redroot pigweed (Amaranthus retroflexus), Russian thistle (Salsola kali), scentless chamomile (Matricaria inodora), sorghum (Sorghum vulgare), spring barley (Hordeum vulgare), sugar beet (Beta vulgaris), sunflower (Helianthus annuus), ivyleaf speedwell (Veronica hederaefolia), spring wheat (Triticum aestivum), winter wheat (Triticum aestivum), wild buckwheat (Polygonum convolvulus), wild mustard (Sinapis arvensis), wild oat (Avena fatua), windgrass (Apera spica-venti) and winter barley (Hordeum vulgare).
# (§3) Treated plants and untreated controls were maintained in a greenhouse for approximately 21 to 28 days, after which all treated plants were compared to untreated controls and visually evaluated. Plant response ratings, summarized in Table D, are based upon a 0 to 100 scale where 0 is no effect and 100 is complete control. A dash response (−) means no test result.
# [3] = tested on: redroot pigweed (Amaranthus retroflexus); test: Test D; conditions: POSTEMERGENCE
# Description: as §1, §2, §3
# [4] = tested on: wild buckwheat (Polygonum convolvulus); test: Test D; conditions: POSTEMERGENCE
# Description: as §1, §2, §3
# [5] = tested on: galium 2 (Galium aparine); test: Test D; conditions: POSTEMERGENCE
# Description: as §1, §2, §3
# [6] = tested on: sugar beet (Beta vulgaris); test: Test D; parameters: key: 0 is no effect; 100 is complete control; conditions: PREEMERGENCE
# [7] = tested on: spring wheat (Triticum aestivum); test: Test D; parameters: key to Plant response rating, Spring Wheat: 0 is no effect; conditions: PREEMERGENCE
# [8] = tested on: common poppy (Papaver rhoeas); test: Test D; parameters: key: 0 is no effect; 100 is complete control; conditions: PREEMERGENCE
# [9] = tested on: galium 2 (Galium aparine); test: Test D; parameters: key: 0 is no effect; 100 is complete control; conditions: PREEMERGENCE
# [10] = tested on: wild buckwheat (Polygonum convolvulus); test: Test D; conditions: PREEMERGENCE
# [11] = tested on: black nightshade (Solanum nigra); test: Test D; parameters: key: 0 is no effect; 100 is complete control; conditions: PREEMERGENCE
# [12] = tested on: windgrass (Apera spica-venti); test: Test D; parameters: key: 0 is no effect; 100 is complete control; conditions: PREEMERGENCE
# [13] = tested on: green foxtail (Setaria viridis); test: Test D; parameters: key: 0 is no effect; 100 is complete control; conditions: PREEMERGENCE
# [14] = tested on: ivyleaf speedwell (Veronica hederaefolia); test: Test D; parameters: key: 0 is no effect; 100 is complete control; conditions: PREEMERGENCE
# [15] = tested on: field violet (Viola arvensis); test: Test D; parameters: key: 0 is no effect; 100 is complete control; conditions: PREEMERGENCE
structure (smiles),measurement,setting,value
Cc1cnc(-c2ccc(C(F)(F)F)cc2)nc1Cc1cccc(OC(F)(F)F)c1 [Compound 15],"Plant response rating, Barnyardgrass",[1]; Rate 125 g/ha,40
same,"Plant response rating, Barnyardgrass",[1]; Rate 250 g/ha,75
CCc1cnc(-c2ccc(C(F)(F)F)cc2)nc1Cc1cccc(C(F)(F)F)c1 [Compound 22],"Plant response rating, Blackgrass",[2]; Rate 62 g/ha,30
same,"Plant response rating, Blackgrass",[2]; Rate 125 g/ha,60
same,"Plant response rating, Blackgrass",[2]; Rate 250 g/ha,40
same,"Plant response rating, Kochia",kochia (Kochia scoparia); Rate 62 g/ha,50
same,"Plant response rating, Kochia",kochia (Kochia scoparia); Rate 125 g/ha,70
same,"Plant response rating, Redroot pigweed",[3]; Rate 62 g/ha,50
same,"Plant response rating, Redroot pigweed",[3]; Rate 125 g/ha,70
same,"Plant response rating, Wild buckwheat",[4]; Rate 62 g/ha,20
same,"Plant response rating, Wild buckwheat",[4]; Rate 125 g/ha,20
same,"Plant response rating, Galium",[5]; Rate 62 g/ha,70
same,"Plant response rating, Galium",[5]; Rate 125 g/ha,90
same,"Plant response rating, Sugar beet",[6]; Rate 62 g/ha,30
same,"Plant response rating, Sugar beet",[6]; Rate 125 g/ha,100
same,"Plant response rating, Sugar beet",[6]; Rate 250 g/ha,80
same,"Plant response rating, Spring Wheat",[7]; Rate 62 g/ha,0
same,"Plant response rating, Spring Wheat",[7]; Rate 125 g/ha,10
same,"Plant response rating, Spring Wheat",[7]; Rate 250 g/ha,5
same,"Plant response rating, Common poppy",[8]; Rate 62 g/ha,60
same,"Plant response rating, Common poppy",[8]; Rate 125 g/ha,70
same,"Plant response rating, Common poppy",[8]; Rate 250 g/ha,70
same,"Plant response rating, Galium",[9]; Rate 62 g/ha,20
same,"Plant response rating, Galium",[9]; Rate 125 g/ha,100
same,"Plant response rating, Galium",[9]; Rate 250 g/ha,30
same,"Plant response rating, Wild buckwheat",[10]; Rate 125 g/ha,55
same,"Plant response rating, Wild buckwheat",[10]; Rate 250 g/ha,30
same,"Plant response rating, Blk nightshade",[11]; Rate 62 g/ha,10
same,"Plant response rating, Blk nightshade",[11]; Rate 125 g/ha,60
same,"Plant response rating, Blk nightshade",[11]; Rate 250 g/ha,50
same,"Plant response rating, Windgrass",[12]; Rate 62 g/ha,20
same,"Plant response rating, Windgrass",[12]; Rate 125 g/ha,70
same,"Plant response rating, Windgrass",[12]; Rate 250 g/ha,30
same,"Plant response rating, Green foxtail",[13]; Rate 62 g/ha,10
same,"Plant response rating, Green foxtail",[13]; Rate 125 g/ha,100
same,"Plant response rating, Green foxtail",[13]; Rate 250 g/ha,100
CCc1cnc(-n2ccc(C(F)(F)F)n2)nc1Cc1cccc(C(F)(F)F)c1 [Compound 46],"Plant response rating, Blackgrass",[2]; Rate 31 g/ha,10
same,"Plant response rating, Blackgrass",[2]; Rate 62 g/ha,60
same,"Plant response rating, Ivyleaf speedwe",[14]; Rate 31 g/ha,100
same,"Plant response rating, Ivyleaf speedwe",[14]; Rate 62 g/ha,100
same,"Plant response rating, Sugar beet",[6]; Rate 31 g/ha,70
same,"Plant response rating, Sugar beet",[6]; Rate 62 g/ha,100
same,"Plant response rating, Spring Wheat",[7]; Rate 31 g/ha,30
same,"Plant response rating, Spring Wheat",[7]; Rate 62 g/ha,10
same,"Plant response rating, Common poppy",[8]; Rate 31 g/ha,100
same,"Plant response rating, Common poppy",[8]; Rate 62 g/ha,100
same,"Plant response rating, Galium",[9]; Rate 31 g/ha,60
same,"Plant response rating, Galium",[9]; Rate 62 g/ha,60
same,"Plant response rating, Wild buckwheat",[10]; Rate 31 g/ha,40
same,"Plant response rating, Wild buckwheat",[10]; Rate 62 g/ha,40
same,"Plant response rating, Blk nightshade",[11]; Rate 31 g/ha,50
same,"Plant response rating, Blk nightshade",[11]; Rate 62 g/ha,50
same,"Plant response rating, Windgrass",[12]; Rate 31 g/ha,40
same,"Plant response rating, Windgrass",[12]; Rate 62 g/ha,100
same,"Plant response rating, Field violet",[15]; Rate 31 g/ha,85
same,"Plant response rating, Field violet",[15]; Rate 62 g/ha,100
same,"Plant response rating, Green foxtail",[13]; Rate 31 g/ha,80
same,"Plant response rating, Green foxtail",[13]; Rate 62 g/ha,100
Cc1cnc(-n2cnc(C(F)(F)F)n2)nc1Cn1ccc(C(F)(F)F)n1 [Compound 51],"Plant response rating, Blackgrass",[2]; Rate 31 g/ha,60
same,"Plant response rating, Blackgrass",[2]; Rate 62 g/ha,80
same,"Plant response rating, Ivyleaf speedwe",[14]; Rate 31 g/ha,100
same,"Plant response rating, Ivyleaf speedwe",[14]; Rate 62 g/ha,100
same,"Plant response rating, Sugar beet",[6]; Rate 31 g/ha,100
same,"Plant response rating, Sugar beet",[6]; Rate 62 g/ha,100
same,"Plant response rating, Spring Wheat",[7]; Rate 31 g/ha,60
same,"Plant response rating, Spring Wheat",[7]; Rate 62 g/ha,70
same,"Plant response rating, Common poppy",[8]; Rate 31 g/ha,100
same,"Plant response rating, Common poppy",[8]; Rate 62 g/ha,100
same,"Plant response rating, Galium",[9]; Rate 31 g/ha,100
same,"Plant response rating, Galium",[9]; Rate 62 g/ha,100
same,"Plant response rating, Wild buckwheat",[10]; Rate 31 g/ha,90
same,"Plant response rating, Wild buckwheat",[10]; Rate 62 g/ha,90
same,"Plant response rating, Blk nightshade",[11]; Rate 31 g/ha,100
same,"Plant response rating, Blk nightshade",[11]; Rate 62 g/ha,95
same,"Plant response rating, Windgrass",[12]; Rate 31 g/ha,100
same,"Plant response rating, Windgrass",[12]; Rate 62 g/ha,100
same,"Plant response rating, Field violet",[15]; Rate 31 g/ha,65
same,"Plant response rating, Field violet",[15]; Rate 62 g/ha,65
same,"Plant response rating, Green foxtail",[13]; Rate 31 g/ha,100
same,"Plant response rating, Green foxtail",[13]; Rate 62 g/ha,100
Cc1cnc(-n2ccc(C(F)(F)F)n2)nc1Cn1ccc(C(F)(F)F)n1 [Compound 52],"Plant response rating, Blackgrass",[2]; Rate 31 g/ha,50
same,"Plant response rating, Blackgrass",[2]; Rate 62 g/ha,80
same,"Plant response rating, Blackgrass",[2]; Rate 125 g/ha,90
same,"Plant response rating, Kochia",kochia (Kochia scoparia); Rate 16 g/ha,70
same,"Plant response rating, Kochia",kochia (Kochia scoparia); Rate 31 g/ha,70
same,"Plant response rating, Kochia",kochia (Kochia scoparia); Rate 62 g/ha,70
same,"Plant response rating, Kochia",kochia (Kochia scoparia); Rate 125 g/ha,70
same,"Plant response rating, Redroot pigweed",[3]; Rate 16 g/ha,45
same,"Plant response rating, Redroot pigweed",[3]; Rate 31 g/ha,60
same,"Plant response rating, Redroot pigweed",[3]; Rate 62 g/ha,60
same,"Plant response rating, Redroot pigweed",[3]; Rate 125 g/ha,70
same,"Plant response rating, Wild buckwheat",[4]; Rate 16 g/ha,60
same,"Plant response rating, Wild buckwheat",[4]; Rate 31 g/ha,50
same,"Plant response rating, Wild buckwheat",[4]; Rate 62 g/ha,70
same,"Plant response rating, Wild buckwheat",[4]; Rate 125 g/ha,80
same,"Plant response rating, Galium",[5]; Rate 16 g/ha,40
same,"Plant response rating, Galium",[5]; Rate 31 g/ha,50
same,"Plant response rating, Galium",[5]; Rate 62 g/ha,65
same,"Plant response rating, Galium",[5]; Rate 125 g/ha,60
same,"Plant response rating, Sugar beet",[6]; Rate 31 g/ha,100
same,"Plant response rating, Sugar beet",[6]; Rate 62 g/ha,100
same,"Plant response rating, Sugar beet",[6]; Rate 125 g/ha,100
same,"Plant response rating, Spring Wheat",[7]; Rate 31 g/ha,60
same,"Plant response rating, Spring Wheat",[7]; Rate 62 g/ha,70
same,"Plant response rating, Spring Wheat",[7]; Rate 125 g/ha,70
same,"Plant response rating, Wild buckwheat",[10]; Rate 31 g/ha,40
same,"Plant response rating, Wild buckwheat",[10]; Rate 62 g/ha,60
same,"Plant response rating, Blk nightshade",[11]; Rate 31 g/ha,10
same,"Plant response rating, Blk nightshade",[11]; Rate 62 g/ha,40
same,"Plant response rating, Blk nightshade",[11]; Rate 125 g/ha,90
same,"Plant response rating, Windgrass",[12]; Rate 31 g/ha,80
same,"Plant response rating, Windgrass",[12]; Rate 62 g/ha,100
same,"Plant response rating, Windgrass",[12]; Rate 125 g/ha,100
same,"Plant response rating, Green foxtail",[13]; Rate 31 g/ha,50
same,"Plant response rating, Green foxtail",[13]; Rate 62 g/ha,80
same,"Plant response rating, Green foxtail",[13]; Rate 125 g/ha,100
"Cc1cnc(-n2ccc(C(F)(F)F)n2)nc1Cc1cccc(C(F)(F)F)c1 [Example 2, 5-methyl-4-[[3-(trifluoromethyl)phenyl]methyl]-2-[3-(trifluoromethyl)-1H-pyrazol-1-yl]pyrimidine]","Plant response rating, Barnyardgrass",[1]; Rate 32 g/ha,20
same,"Plant response rating, Barnyardgrass",[1]; Rate 64 g/ha,95
